We go through one molecule from patent US20060089410A1, “Combination of chemotherapeutic drugs for increasing antitumor activity” (Titan Pharmaceuticals, Inc., priority 2002, published 2006).

Series [1] relates to H23 (NCI-H23) NSCLC cell line. Description: MTS growth inhibition assay, sequencing of Pivanex and docetaxel, H23. The series is classed as cell-based, human. As to conditions: after 24 hour exposure.
The test system of the next series is T24 bladder cancer cells. Description: Pretreatment followed by various chemotherapeutic agents, T24. In kind it is cell-based, human. The method, then:
Human T24 bladder and A549 lung cancer cells were exposed to increasing concentrations of pivaloyloxymethyl butyrate for 6 or 72 hours followed by exposure to various chemotherapeutic agents. […] At higher dosages the increase in cytotoxicity following the sequential regimen would show after a shorter induction period with pivaloyloxymethyl butyrate as discussed above.

Series [2] deals with T24 Bladder transitional carcinoma cells. Briefly: Crystal violet microtiter assay, Pivanex then cytotoxic drug, T24. The series is classed as cell-based, human. The method, then:
(§1) T24 Bladder transitional carcinoma cells, Calu-6 anaplastic lung carcinoma cells, and SK-MES-1 squamous lung cell carcinoma cell cultures were purchased from the American Type Culture Collection (Manassas, Va.). All cell lines were cultured in RPMI-1640 with 10% fetal calf serum. For culture in microtiter dishes, cells were plated at a density of 10^4 cells/well and incubated at 37° C., 5% CO2 overnight.
(§2) After overnight incubation, drugs were added to wells in quadruplicate and incubated for 6 to 96 hours in the presence or absence of the oxyalkylene containing compound. […] the media was removed, fresh media were added with cytotoxic drug, and the cultures were incubated for another 6 hours.
The wells were then washed and medium without drug was added to each well. Microtiter plates were subsequently incubated for an additional 3 days before cell density was determined by a Crystal Violet Assay. Some cultures were alternatively fixed in methanol and stained with hematoxylin and eosin (H&E) stain for 5 minutes prior to microphotography.
PIVANEX (pivaloyloxymethyl butyrate) was obtained from Titan Pharmaceuticals Inc. (South San Francisco, Calif.) and was admixed with 0.05% Intralipid™ (Fresenius Kabi, Clayton, N.C.) prior to addition to culture media. The cytotoxic drugs gemcitabine (Gemzar; Eli Lilly and Co., Indianapolis, Ind.), cisplatin (Platinol, Bristol-Myers Squibb Co., Princeton, N.J.), paclitaxel (Taxol; Bristol-Myers Squibb Co., Princeton, N.J.), and docetaxel (Taxotere, Aventis Pharmaceuticals Products, Inc., Bridgewater, N.J.) were studied with PIVANEX.
Cells in microtiter wells were rinsed with PBS and fixed in two volumes of 100% cold methanol for 5 minutes. One volume of 0.5% crystal violet in 20% methanol was added and the attached cells stained for 10 minutes. The cells were then washed and crystal violet was eluted with 0.1 N sodium citrate buffer and read on an ELISA plate reader at 490 nm.

Series [3] deals with c-Myc oncogene. Briefly: c-Myc oncogene expression by RT-PCR, T24 cells. In kind it is cell-based, human. Conditions: for c-Myc oncogene expression: 96 hour exposure. The method, then:
as §1, §2
(§3) Tumor cell culture mRNA was isolated by standard methods, and RT-PCR was conducted to determine levels of c-Myc oncogene expression. The c-Myc primer pair used for RT-PCR cycling was:
(§4) The c-Myc primer pair was cycled by the following program: 95° C. for 3 min., then 30 cycles of (95° C. for 1 min., then 55° C. for 1 min., then 72° C. for 1 min.) followed by holding temperature at 72° C. for 7 min. before ramping temperature to 4° C. Samples were analyzed quantitatively by 1% agarose gel electrophoresis and gel densitometry.

Series [4] can be described thus: Preliminary Phase I/II clinical trials, lung cancer and refractory malignancies metastatic to the liver. In kind it is in vivo, human.
The test system of the next series is p53. Briefly: Oncogene expression after exposure of tumor cells. As to conditions: 72-hour exposure, 10-50 μM. In kind it is cell-based. From the text: The observed morphologic changes consistent with a more differentiated phenotype prompted investigation of oncogene expression following exposure to pivaloyloxymethyl butyrate.
Series [5] has as its system c-Myc oncogene. Briefly: c-Myc oncogene expression by RT-PCR, Calu-6 cells. In kind it is cell-based. As to conditions: for c-Myc oncogene expression: 96 hour exposure, n = 2. The protocol:
as §1, §2, §3, §4

Another series deals with H522 NSCLC cell line. Briefly: MTS growth inhibition assay, sequencing of Pivanex and docetaxel, H522. As to conditions: after 24 hour exposure. In kind it is cell-based, human. The protocol:
Human Non-Small Cell Lung Carcinoma Cell Lines, H522 and NCI-H23, were evaluated for growth inhibitory activity of Pivanex, alone and in combination with the standard chemotherapeutic agent, docetaxel. Cells were treated for three days with Pivanex followed by 24 hours of exposure to docetaxel or the cells were treated for 24 hours with docetaxel followed by three days of exposure to Pivanex. The cell growth inhibition was judged at the end of the 4-day experiments by a standard staining technique using MTS tetrazolium vital stain. […]
Exponentially growing cells were harvested with trypsin (0.05%)/EDTA (0.02%) and re-suspended in fresh medium containing 10% FBS. […] Absorbance was documented on a Dynex HD microplate reader at a wavelength of 490 nm. IC50 values were determined by using the Prism® GraphPad software from 3 different tests, each of which involved 4 replicates for each dose determination. The data are presented as percent growth inhibition, where 0% represents the mean value in wells to which only vehicle (0.1% DMSO) was added and was calculated as follows: % Growth Inhibition=(1−(ODtest/ODvehicle))×100 where ODtest is the optical density of the tested sample, OD vehicle is the optical density of the vehicle in which each respected drug is dissolved. […]

For `CCCC(=O)OCOC(=O)C(C)(C)C` [Pivanex, pivaloyloxymethyl butyrate], the “cell growth with agent alone” value in series [1] is on record as “steep increase in H23 cell growth”; with H522 NSCLC cell line, “steep increase in H522 cell growth”. For the same molecule, the “enhancement of cytotoxicity of chemotherapeutic agents” value in the series on T24 bladder cancer cells (T24, 6-hour pretreatment, lower doses) is “did not enhance cytotoxicity”; in the series with T24 bladder cancer cells (T24, 72-hour pretreatment), “did enhance drug-induced cytotoxicity”. Also, the “T24 cancer cell viability (A^490 Absorbance)” value is listed as 0.48 in series [2] (Pivanex 10 μM, cisplatin 0 μM); 0.479 in series [2] (Pivanex 25 μM, gemcitabine 0 nM); 0.422 in series [2] (Pivanex 50 μM, cisplatin 0 μM); 0.455 in series [2] (Pivanex 50 μM, gemcitabine 0 nM); 0.414 in series [2] (Pivanex 100 μM, gemcitabine 0 nM); 0.41 in series [2] (Pivanex 200 μM, gemcitabine 0 nM). The c-Myc oncogene expression was determined as 760 PCR units in the series on c-Myc oncogene [3] (Pivanex 10 μM); 972 PCR units in the series with c-Myc oncogene [3] (Pivanex 25 μM); 966 PCR units with c-Myc oncogene [3] (Pivanex 50 μM); 640 PCR units in the series on c-Myc oncogene [3] (Pivanex 100 μM); 560 PCR units with c-Myc oncogene [3] (Pivanex 200 μM); 893 PCR units in the series on c-Myc oncogene [5] (Pivanex 10 μM). The c-Myc oncogene expression in the series on c-Myc oncogene [5] (Pivanex 25 μM) was 743 PCR units; with c-Myc oncogene [5] (Pivanex 50 μM), 711 PCR units; in the series on c-Myc oncogene [5] (Pivanex 100 μM) it was 647 PCR units; with c-Myc oncogene [5] (Pivanex 200 μM) it was 460 PCR units. For the same molecule, the “concentrations (as low as) that decreased the expression of c-Myc oncogene” value lay in the range of 10 to 50 µM in the series with c-Myc oncogene [3] (T-24, 96 hours in culture) and 10 to 50 µM in the series with c-Myc oncogene [5] (Calu-6, 96 hours in culture). Further, the tolerability entry in series [4] is reported as “well tolerated”. Besides, the p53 expression result with p53 is listed as “significant suppression”.
